The source made the active and inactive calls.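 How the source made its calls: active means compounds giving half or more protection of infected cells from virus-caused growth loss, again on retest; inactive means the rest.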
System: CEM cells HIV-1 protection, formazan growth assay
Assay: NCI AIDS Antiviral Assay
Conditions: for IC50: measured here: growth of uninfected CEM cells
Outline: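 Protection of CEM cells against HIV-1 measured as cell growth via soluble formazan read-out, with five concentrations tested on both infected and uninfected cells; failure to protect may reflect toxicity.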

SMILES	outcome	EC50 [µM]	IC50 [µM]
Cc1cc(Cl)ccc1NC(=O)CCCC(=O)C(C(=O)c1ccccc1)c1ccccc1 (configuration not stated)	inactive		
O=C(NNC1=NCCCCN1)Nc1ccc(Cl)cc1		107	> 200
OC[C@@H]1C2CCC([C@@H]1CO)C2(Cc1ccccc1)Cc1ccccc1		> 89.1	> 89.1
O=C(Nc1ccc(Cl)c(Cl)c1)Nc1ccc([N+](=O)[O-])cn1		> 200	> 200
CCOC(=O)/C(C#N)=C(N)/C(=N\Nc1cccc(C(F)(F)F)c1)C(=O)OCC	inactive		
CC1=NN(C(=O)CC(=O)Nc2cccc(Cl)c2)C(=O)C1N=Nc1ccc(C(=O)O)cc1 (configuration not stated)		> 200	52.5
CC(C)C1=Cc2ccc3c(c2C(=O)C1=O)CCCC3(C)C		> 18.6	2.95
O=C(CC(=O)Nc1cccc(Cl)c1)NNCC(=O)Nc1nnc(-c2ccccc2)s1		> 22.4	> 22.4
COc1cc2c(cc1OCCCN1C(=O)c3cccc4cccc(c34)C1=O)N=C[C@@H]1CCCN1C2=O		5.13	13.2
O=c1cc(O)cc2n1CCC2		> 1660	> 1660
O=C1CC2C(=O)N(Cc3ccccc3)C1C(S(=O)(=O)c1ccccc1)C2S(=O)(=O)c1ccccc1 (configuration not stated)	inactive		
C[N+](C)(C)c1ccc(/C=C2\C=Cc3ccccc32)cc1	inactive		
CCN(CC)c1ccc(C2N3CCCCC3[C@@H]3c4[nH]c5ccccc5c4CCN23)cc1 (some centres not stated)		> 16.2	> 16.2
COc1ccc(C2OCC3C2CO[C@H]3c2ccc(OC)c(OC)c2)cc1OC (mixture of isomers)		> 200	93.3
CC1C(=O)CCC1C(Sc1ccccc1)(Sc1ccccc1)Sc1ccccc1 (configuration not stated)	inactive		
CCOCc1cc(=O)c2cc3c(cc2o1)OC(C)(C)CC3	inactive		
COC(=O)[C@@H]1N2C(=O)C=NO[C@H]2SC1(C)C		> 1020	> 1020
CNC(=O)OCCOC(=O)c1ccc(OC(=O)NC)cc1		> 200	70.8
O=C(CN1CCOCC1)CC(O)(C(F)(F)F)C(F)(F)F		> 200	95.5

SMILES	outcome	EC50 [µM]	IC50 [µM]
O=c1[nH]c2ccc(CC(=S)N3CCOCC3)cc2o1		> 200	> 200
CC(=S)N/C=C\c1nc2ccccc2[nH]c1=O	inactive		
c1ccc(-c2c3ccccc3[o+]c3ccccc23)cc1		> 200	33.1
CC(O)C1OC(O)C2OC(C)(C)OC12 (configuration not stated)		> 200	> 200
CCOC(=O)C1(C(=O)OCC)CSC1		> 309	> 309
CC(=O)N(O)Cc1ccccc1		> 1510	692
CC1CC2C(=O)N(c3ccccc3)C(=O)C2c2[nH]c3ccccc3c21 (configuration not stated)	inactive		
CCCCCOCC(=O)OC		> 200	112
O=c1[nH]nc(Cc2ccccc2)n1O		> 200	> 200
O=C(CSSCC(=O)c1ccccc1)c1ccccc1		> 89.1	11
Cc1nc2cc(C(=O)NC=O)c3n[nH]nc3c2n1C		> 200	> 200
CCOC(=O)CC(NCc1ccc(N=Cc2nc3ccc(C(F)(F)F)cc3nc2-c2ccccc2)cc1)C(=O)OCC (configuration not stated)		> 200	162
O=C(O)C1CCCN1C(=O)c1ccccn1 (configuration not stated)		> 200	> 200
Cc1nc(N(CCO)CCO)nc2c1C(=O)Nc1ccccc1N2		> 200	42.7
O=C1CC(=O)NC(=NN2C(=O)CSC2c2ccc(Cl)cc2)N1 (configuration not stated)		> 200	105
CC(C)[C@@H]1CC[C@@H](C)C[C@H]1OC(=O)/C=C1\C(C(=O)O[C@@H]2C[C@H](C)CC[C@H]2C(C)C)[C@H]2C=C[C@@H]1O2 (some centres not stated)		> 200	> 200
Cc1cc(C)c2c(c1)CC1(Cc3cc(C)c(C)cc3C1=O)C2=O (configuration not stated)		> 100	> 100
NC(CCCC(N)P(=O)(O)O)C(=O)O (configuration not stated)	inactive		
COc1ccc(/C=C(/C#N)c2ccccc2)cc1		> 200	2.09

Reference: PubChem BioAssay AID179 (DTP/NCI, 2004)
